Measurements taken from patent US20150132388A1 (Druggability Technologies Holdings Limited, priority 2013, published 2015).

Legend:
[1] = cited from earlier work
PAMPA permeability = format: in vitro ADME; settings: both the fed and fasted state simulating conditions
Protocol: Reference source not found. PAMPA permeability measurements were performed as described by M. Kansi et al. (Journal of medicinal chemistry, 41, (1998) pp 1007) with modifications based on S. Bendels et al (Pharmaceutical research, 23 (2006) pp 2525). Permeability was measured in a 96-well plate assay across an artificial membrane composed of dodecane with 20% soy lecithin supported by a PVDF membrane (Millipore, USA). The receiver compartment was phosphate buffered saline (pH 7.0) supplemented with 1% sodium dodecyl sulfate. The assay was performed at room temperature; incubation time was 1-24 hours. The concentration in the receiver compartment was determined by UV-VIS spectrophotometry (Thermo Scientific Genesys S10).
The ratio of the selected complexation agents and pharmaceutically acceptable excipients (Lutrol F127 and Sodium acetate) was optimized.

[2] = immature or ovariectomized mice and rats; cited from earlier work
[3] = immature rats and ovariectomized monkeys; cited from earlier work
[4] = tested on: xenografts of human breast cancer MCF-7 cells; settings: cited from earlier work
[5] = tested on: tamoxifen-resistant, as well as estrogen-sensitive human breast cancer (MCF-7) cell lines; settings: tamoxifen-resistant and estrogen-sensitive MCF-7 cell lines; cited from earlier work
[6] = Comparative solubility test (apparent solubility, UV-VIS); format: physicochemical; settings: distillated water, room temperature, 100 nm syringe filter
Protocol: The samples were dispersed in distillated water and the resulting dispersions were filtered by 100 nm disposable syringe filter. The active content in the filtrate was measured by UV-Vis spectrophotometry and the solubility was calculated.

[7] = intramuscular injection of 250 mg

7-alpha-[9-(4,4,5,5,5-penta fluoropentylsulphinyl)nonyl]estra-1,3,5-(10)-triene-3,17 beta-diol [Fulvestrant]
Time to maximum plasma concentrations ([1]; 250 mg intramuscularly): about 7 days | Excretion via the feces ([1]; in vivo): approximately 90% | Renal elimination ([1]; in vivo): less than 1% | Apparent half-life [1, 7]: about 40 days | Clearance (Mean±SD) [1, 7]: 690 ± 226 mL/min | Bioavailability ([1]; intramuscular, between study comparisons): 90-100% | Accumulation ([1]; once a month administration): 2-3 fold | Time to steady state ([1]; once a month administration): about 6 months | Terminal half-life ([1]; single dose studies, intramuscular): about 50 days | PAMPA permeability (PAMPA permeability): not detectable | Agonist-type effects in uterotropic assays [2]: no agonist-type effects | Effect on the uterotrophic action of estradiol [3]: blocked the uterotrophic action of estradiol | Establishment of tumors from xenografts ([4]; MCF-7 cells in nude mice): delayed the establishment of tumors | Growth of established xenografts ([4]; established MCF-7 xenografts and tamoxifen-resistant breast tumor xenografts): inhibited the growth | Inhibition of cell growth [5]: reversible inhibitor of the growth | Solubility (apparent solubility) [6]: < 30 µg/mL
